Reference: patent publication US20120010254A1 (priority 2008, published 2012)
Structures can show the parent of a compound that is named as a salt. Where two headings read alike, the source gives them in different places.

Legend:
[1] = target: influenza virus sialidase (N1) (Influenza A virus, UniProt Q9WAA1); test: biochemical
[2] = system: avian influenza virus H5N1; settings: literature value, Li et al. ref. 12; read-out: EC50 value against avian influenza virus H5N1; cited from earlier work

influenza virus sialidase (N1), sequence (Q9WAA1 whole entry, looked up): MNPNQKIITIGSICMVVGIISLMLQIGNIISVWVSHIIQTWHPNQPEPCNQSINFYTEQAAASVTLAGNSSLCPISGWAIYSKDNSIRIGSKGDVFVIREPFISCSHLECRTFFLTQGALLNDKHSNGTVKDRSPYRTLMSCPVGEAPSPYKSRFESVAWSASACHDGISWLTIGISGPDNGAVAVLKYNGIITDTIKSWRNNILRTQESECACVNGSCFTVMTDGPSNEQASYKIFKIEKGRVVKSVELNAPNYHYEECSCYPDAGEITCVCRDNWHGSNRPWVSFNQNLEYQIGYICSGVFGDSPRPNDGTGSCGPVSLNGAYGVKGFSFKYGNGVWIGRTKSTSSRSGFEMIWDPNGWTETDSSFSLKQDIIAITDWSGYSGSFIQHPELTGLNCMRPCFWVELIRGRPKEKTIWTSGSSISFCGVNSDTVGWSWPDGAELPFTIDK

Molecule: CCC(CC)OC1CC(C(=O)O)=CC(n2cc(CCc3ccccc3)nn2)C1NC(C)=O [Compound 43, 4-Acetylamino-5-(1-ethyl-propoxy)-3-(4-phenethyl-[1,2,3]triazol-1-yl)-cyclohex-1-enecarboxylic acid L-arginine salt]
- Ki [1]: 12 µM

Molecule: CC(=O)N[C@H]1[C@H]([C@H](O)[C@H](O)CO)OC(C(=O)O)=C[C@@H]1N [4-amino-4-deoxy-Neu5Ac2en, reference compound]
- Ki ([1]; read-out: Ki): 0.01 µM

Molecule: CCC(CC)OC1CC(C(=O)O)=CC(n2cc(C(O)CC)nn2)C1NC(C)=O (centres unmarked) [Compound 2, 4-Acetylamino-5-(1-ethyl-propoxy)-3-[4-(1-hydroxy-propyl)-[1,2,3]triazol-1-yl]-cyclohex-1-enecarboxylic acid]
- Ki [1]: 0.7 µM

Molecule: CC(=O)N[C@H]1[C@H]([C@H](O)[C@H](O)CO)OC(C(=O)O)=C[C@@H]1NC(=N)N [4-deoxy-4-guanidino-Neu5Ac2en]
- EC50 [2]: 2.8 µM

Molecule: CCC(CC)OC1CC(C(=O)O)=CC(n2cc(C3(O)CCCC3)nn2)C1NC(C)=O (centres unmarked) [Compound 6, 4-Acetylamino-5-(1-ethyl-propoxy)-3-[4-(1-hydroxy-cyclopentyl)-[1,2,3]triazol-1-yl]-cyclohex-1-enecarboxylic acid]
- IC50 [1]: 110 µM
- Inhibitory activity in words [1]: less effective as inhibitors

Molecule: 4-Acetylamino-3-[4-((17α)-estra-1,3,5(10)-triene-3,17-dihydroxy-17-yl)-[1,2,3]triazol-1-yl]-5-(1-ethyl-propoxy)-cyclohex-1-enecarboxylic acid L-arginine salt [Compound 44]
- Ki ([1]; read-out: Ki): 59 µM

Molecule: CCC(CC)OC1CC(C(=O)O)=CC(n2cc(C3(O)CCCCC3)nn2)C1NC(C)=O (centres unmarked) [Compound 5, 4-Acetylamino-5-(1-ethyl-propoxy)-3-[4-(1-hydroxy-cyclohexyl)-[1,2,3]triazol-1-yl]-cyclohex-1-enecarboxylic acid]
- IC50 [1]: 48 µM
- Inhibitory activity in words [1]: less effective as inhibitors

Molecule: CCC(CC)OC1CC(C(=O)O)=CC(n2cc(C(C)(C)O)nn2)C1NC(C)=O (centres unmarked) [Compound 3, 4-Acetylamino-5-(1-ethyl-propoxy)-3-[4-(1-hydroxy-1-methyl-ethyl)-[1,2,3]triazol-1-yl]-cyclohex-1-enecarboxylic acid]
- Ki [1]: 2 µM

Molecule: CCC(CC)OC1CC(C(=O)O)=CC(N)C1NC(C)=O (centres unmarked) [Compound 38, 4-Acetylamino-3-amino-5-(1-ethyl-propoxy)-cyclohex-1-enecarboxylic acid, reference compound]
- Ki [1]: 0.02 µM

Molecule: CCC(O)c1cn([C@H]2C=C(C(=O)O)O[C@@H]([C@H](O)[C@H](O)CO)[C@@H]2NC(C)=O)nn1 (some centres unmarked) [formula (B)]
- EC50 [2]: 6.4 µM

Molecule: CCC(CC)OC1CC(C(=O)O)=CC(NC(=N)N)C1NC(C)=O (centres unmarked) [Compound 39, 4-Acetylamino-5-(1-ethyl-propoxy)-3-guanidino-cyclohex-1-enecarboxylic acid Trifluoroacetate salt]
- Ki [1]: 0.0048 µM

Molecule: CCC(CC)OC1CC(C(=O)O)=CC(n2cc(CCCO)nn2)C1NC(C)=O (centres unmarked) [Compound 1, 4-Acetylamino-5-(1-ethyl-propoxy)-3-[4-(3-hydroxy-propyl)-[1,2,3]triazol-1-yl]-cyclohex-1-enecarboxylic acid]
- Ki [1]: 5 µM
